Measurements published in ChEMBL document CHEMBL1201862, “PubChem BioAssay data set” (2004).
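Test compounds were applied to cells in 96-well plates for 48 hours at 5 doses. GI50 = concentration required for 50% inhibition of growth.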 Active and inactive are the calls of the source. Rule as the data show it: active = GI50 up to about 1.1 µM and inactive = higher.

Experiments:
Assay in all cases: inhibition of tumour cell growth, NCI panel, 48 h
[1] = system: HT-29
[2] = system: SK-OV-3
[3] = system: ACHN
[4] = system: A549
[5] = system: HCT-116
[6] = system: Malme-3M
[7] = system: RPMI-8226
[8] = system: U-251
[9] = system: OVCAR-4
[10] = system: HCC 2998
[11] = system: UACC-62
[12] = system: TK-10
[13] = system: NCI-H522
[14] = system: COLO 205
[15] = system: MCF7
[16] = system: NCI/ADR-RES
[17] = system: K562
[18] = system: SF-268
[19] = system: BT-549
[20] = system: KM12

For `COc1cc2c(cc1O)CCN[C@@]21CS[C@H]2c3c(OC(C)=O)c(C)c4c(c3C(COC1=O)N1C2C2c3c(cc(C)c(OC)c3O)CC([C@@H]1O)N2C)OCO4` (stereo not given in full), the GI50 [1] was 0.00128 µM (active), the GI50 [2] was 0.0001 µM (active) and the GI50 [3] was < 0.0001 µM (active). The GI50 [4] was < 0.0001 µM (active), the GI50 [5] was 0.0001 µM (active) and the GI50 [6] was < 0.0001 µM (active). The GI50 [7] was 0.00191 µM (active), the GI50 [8] was 0.0001 µM (active) and the GI50 [9] was < 0.0001 µM (active). For the same compound, the GI50 [10] was 0.0001 µM (active), the GI50 [11] was < 0.0001 µM (active) and the GI50 [12] was < 0.0001 µM (active). For the same compound, the GI50 [13] was < 0.0001 µM (active), the GI50 [14] was < 0.0001 µM (active) and the GI50 [15] was < 0.0001 µM (active). For the same compound, the GI50 [16] was 0.0001 µM (active), the GI50 [17] was 0.000324 µM (active) and the GI50 [18] was < 0.0001 µM (active). The GI50 [19] was 0.00181 µM (active) and the GI50 [20] was < 0.0001 µM (active).

For `Cn1nnnc1SC(F)(F)c1nc2ccccc2o1`, the GI50 [1] was > 100 µM (inactive), the GI50 [2] was > 100 µM (inactive) and the GI50 [3] was > 100 µM (inactive). The GI50 [4] was > 100 µM (inactive), the GI50 [5] was > 100 µM (inactive) and the GI50 [6] was > 100 µM (inactive). For the same compound, the GI50 [7] was > 100 µM (inactive), the GI50 [8] was > 100 µM (inactive) and the GI50 [9] was > 100 µM (inactive). The GI50 [10] was > 100 µM (inactive), the GI50 [11] was > 100 µM (inactive) and the GI50 [12] was > 100 µM (inactive). The GI50 [13] was > 100 µM (inactive), the GI50 [14] was > 100 µM (inactive) and the GI50 [15] was > 100 µM (inactive). For the same compound, the GI50 [16] was > 100 µM (inactive), the GI50 [17] was > 100 µM (inactive) and the GI50 [18] was > 100 µM (inactive). For the same compound, the GI50 [19] was > 100 µM (inactive) and the GI50 [20] was 35.9 µM (inactive).

In the case of `CN1Cc2cc3cc4c(cc3nc2N(C)C1)OCCO4`, the GI50 [1] is reported as > 100 µM (inactive), the GI50 [2] is reported as > 100 µM (inactive) and the GI50 [3] is reported as > 100 µM (inactive). For the same compound, the GI50 [4] was > 100 µM (inactive), the GI50 [5] was > 100 µM (inactive) and the GI50 [6] was > 100 µM (inactive). The GI50 [7] was 54.7 µM (inactive), the GI50 [8] was > 100 µM (inactive) and the GI50 [9] was > 100 µM (inactive). For the same compound, the GI50 [10] was > 100 µM (inactive), the GI50 [11] was > 100 µM (inactive) and the GI50 [12] was > 100 µM (inactive). The GI50 [13] was > 100 µM (inactive), the GI50 [14] was > 100 µM (inactive) and the GI50 [15] was > 100 µM (inactive). For the same compound, the GI50 [16] was > 100 µM (inactive), the GI50 [17] was > 100 µM (inactive) and the GI50 [18] was > 100 µM (inactive). The GI50 [19] was > 100 µM (inactive) and the GI50 [20] was > 100 µM (inactive).

With `C=C1CCCC(C)(C)[C@H]1C/C=C1\CCOC1=O` the GI50 [1] was 13.9 µM (inactive), the GI50 [2] was 10.5 µM (inactive) and the GI50 [3] was 15.7 µM (inactive). For the same compound, the GI50 [4] was 13.7 µM (inactive), the GI50 [5] was 12.6 µM (inactive) and the GI50 [6] was 13.5 µM (inactive). For the same compound, the GI50 [7] was 6.62 µM (inactive), the GI50 [8] was 16.8 µM (inactive) and the GI50 [9] was 11 µM (inactive). For the same compound, the GI50 [10] was 23.9 µM (inactive), the GI50 [11] was 29.4 µM (inactive) and the GI50 [12] was 19.5 µM (inactive). For the same compound, the GI50 [13] was 18 µM (inactive), the GI50 [14] was 19.3 µM (inactive) and the GI50 [15] was 12.8 µM (inactive). For the same compound, the GI50 [16] was 10.5 µM (inactive), the GI50 [17] was 11.9 µM (inactive) and the GI50 [18] was 9.04 µM (inactive). The GI50 [19] was 14 µM (inactive) and the GI50 [20] was 17.9 µM (inactive).

For `Cn1c(=O)[nH]c2nccnc2c1=O`, the GI50 [1] was > 10 µM (inactive), the GI50 [2] was > 10 µM (inactive) and the GI50 [3] was > 10 µM (inactive). The GI50 [4] was > 10 µM (inactive), the GI50 [5] was > 10 µM (inactive) and the GI50 [6] was > 10 µM (inactive). The GI50 [7] was > 10 µM (inactive), the GI50 [8] was > 10 µM (inactive) and the GI50 [9] was > 10 µM (inactive). The GI50 [10] was > 10 µM (inactive), the GI50 [11] was > 10 µM (inactive) and the GI50 [12] was > 10 µM (inactive). For the same compound, the GI50 [13] was > 10 µM (inactive), the GI50 [14] was > 10 µM (inactive) and the GI50 [15] was > 10 µM (inactive). The GI50 [16] was > 10 µM (inactive), the GI50 [17] was > 10 µM (inactive) and the GI50 [18] was > 10 µM (inactive). The GI50 [19] was > 10 µM (inactive) and the GI50 [20] was > 10 µM (inactive).
